Data reported in BindingDB's records for doi:10.7270/Q2H70D5W (University of Pittsburgh, 2007).

Each compound was assayed against Gag-Pol polyprotein (Human immunodeficiency virus type 1 group M subtype B (isolate HXB2), UniProt P04585) (assay: HIV-1 RT RNase H inhibitor potency, dose response, biochemical, probe assessment (AID 652)). Details: pH 8; 23 °C.

Row | Compound | IC50 [µM]
1 | CCN1CCN(c2nc(C)nc3c2sc(=S)n3C)CC1 [7-(4-ethyl-1-piperazinyl)-3,5-dimethyl-2-thiazolo[4,5-d]pyrimidinethione] | 2.94
2 | Cc1ccc(-c2cc(C(=O)NC3=NCCS3)c3cc(Br)ccc3n2)o1 [6-bromanyl-N-(4,5-dihydro-1,3-thiazol-2-yl)-2-(5-methylfuran-2-yl)quinoline-4-carboxamide] | 0.175
3 | COc1ccccc1-c1nnc2n1N=C(c1ccc(O)c(O)c1)CS2 [(4E)-4-[3-(2-methoxyphenyl)-5H-[1,2,4]triazolo[3,4-b][1,3,4]thiadiazin-6-ylidene]-2-oxidanyl-cyclohexa-2,5-dien-1-one] | 1
4 | CCCCCn1c(SCCCC)nc2c1c(=O)[nH]c(=O)n2C | 2.48
5 | O=C(Nc1ccc2nc(-c3ccco3)c(-c3ccco3)nc2c1)N1CCCCCC1 | 0.953
6 | COC(=O)c1ccc2c(=O)n(Cc3ccco3)c(SCC(=O)Nc3ccccc3Cl)nc2c1 [2-[[2-(2-chloroanilino)-2-keto-ethyl]thio]-3-(2-furfuryl)-4-keto-quinazoline-7-carboxylic acid methyl ester] | 4.65
7 | NC(=O)c1cc(-c2ccccc2)sc1NC(=O)Cc1ccc(S(=O)(=O)N2CCOCC2)s1 [2-[2-(5-morpholin-4-ylsulfonylthiophen-2-yl)ethanoylamino]-5-phenyl-thiophene-3-carboxamide] | 7.35
8 | CN(c1ccccc1)c1ccc(C=c2s/c(=C(/C#N)C(=O)C(C)(C)C)n(Cc3ccco3)c2=O)cc1 [2-[3-(furan-2-ylmethyl)-5-[[4-(N-methylanilino)phenyl]methylidene]-4-oxo-1,3-thiazolidin-2-ylidene]-4,4-dimethyl-3-oxopentanenitrile] | 2.01
9 | Cc1ccc(-n2nc(C)c3c2NC(=O)CSC3c2ccc3c(c2)OCO3)cc1 (stereo not drawn) [4-(1,3-benzodioxol-5-yl)-3-methyl-1-(4-methylphenyl)-2,4-dihydropyrazolo[3,4-e][1,4]thiazepin-7-one] | 5.2
10 | COc1ccc(C2c3c(oc4ccc(Cl)cc4c3=O)C(=O)N2Cc2ccco2)cc1OC (stereo not drawn) [7-chloranyl-1-(3,4-dimethoxyphenyl)-2-(furan-2-ylmethyl)-1H-chromeno[2,3-c]pyrrole-3,9-dione] | 13.5
11 | c1ccc(N2CCN(c3nc4cc5c(cc4s3)OCO5)CC2)cc1 [6-(4-phenyl-1-piperazinyl)-[1,3]dioxolo[4,5-f][1,3]benzothiazole] | 3.21
12 | Cc1nn(CCc2nc(-c3ccco3)cs2)c2nc(O)cc(C(F)(F)F)c12 [SMR000060922] | 1.97
13 | C=CCNC(=O)c1c(N)n(-c2ccc3c(c2)OCO3)c2nc3ccccc3nc12 [2-amino-1-(1,3-benzodioxol-5-yl)-N-prop-2-enyl-3-pyrrolo[3,2-b]quinoxalinecarboxamide] | 32.7
14 | COC(=O)c1ccccc1S(=O)(=O)N(Cc1cc2cc3c(cc2[nH]c1=O)OCO3)C1CCCCC1 [SMR000002998] | 21.1
15 | CCOC(=O)c1c(C2COc3ccccc3O2)csc1NC(=O)c1ccco1 (stereo not drawn) [4-(2,3-dihydro-1,4-benzodioxin-3-yl)-2-(2-furoylamino)thiophene-3-carboxylic acid ethyl ester] | 0.654
16 | CCc1ccccc1N1CSC2=C(C#N)C(c3ccccc3F)CC(=O)N2C1 (stereo not drawn) [3-(2-ethylphenyl)-8-(2-fluorophenyl)-6-keto-2,4,7,8-tetrahydropyrido[2,1-b][1,3,5]thiadiazine-9-carbonitrile] | 1.22
17 | CC(C)c1nc2sc3c(SCC(=O)NCc4ccco4)ncnc3c2c2c1CCC2 [MLS000082582] | 2.28
18 | CCOC(=O)c1c(C)[nH]c(C(=O)CSc2nc3ccccc3o2)c1C [ethyl 5-[2-(1,3-benzoxazol-2-ylsulfanyl)ethanoyl]-2,4-dimethyl-1H-pyrrole-3-carboxylate] | 7.6
19 | Nc1c(S(=O)(=O)c2cccc(Cl)c2)c2c(n1N=CC1=CC(=O)C(=O)C=C1)Nc1ccccc1N2 [4-[[2-azanyl-3-(3-chlorophenyl)sulfonyl-4,9-dihydropyrrolo[3,2-b]quinoxalin-1-yl]iminomethyl]cyclohexa-3,5-diene-1,2-dione] | 0.266
20 | CC(C)CNC(=O)c1c(N)n(N=Cc2ccccn2)c2nc3ccccc3nc12 [2-amino-N-(2-methylpropyl)-1-(2-pyridinylmethylideneamino)-3-pyrrolo[3,2-b]quinoxalinecarboxamide] | 9.34
21 | O=C1CC(c2ccccc2)Cc2nc(N3CCc4ccccc43)ncc21 (stereo not drawn) [2-(2,3-dihydroindol-1-yl)-7-phenyl-7,8-dihydro-6H-quinazolin-5-one] | 5.87
22 | S=c1[nH]c(C2CC2)nc2ccccc12 [SMR000075851] | 2.06
23 | Cc1cccc(NC(=O)Cn2c(C)c(C#N)c3ccccc32)c1C [2-(3-Cyano-2-methyl-indol-1-yl)-N-(2,3-dimethyl-phenyl)-acetamide] | 29
24 | O=C(c1ccc2c3c(cccc13)C(=O)N(O)C2=O)N1CCCCC1 [2-hydroxy-6-(piperidine-1-carbonyl)benzo[de]isoquinoline-1,3-dione] | 4.19

Row | Compound | IC50 [µM]
25 | C=CCc1c(C)nc(S)c(C#N)c1C [4,6-dimethyl-5-prop-2-enyl-2-sulfanylidene-1H-pyridine-3-carbonitrile] | 7.25
26 | CN(C)c1ccc(NC=C2C(=O)NC(=O)N(CCC3=CCCCC3)C2=O)cc1 [(5Z)-1-[2-(cyclohexen-1-yl)ethyl]-5-[[[4-(dimethylamino)phenyl]amino]methylidene]-1,3-diazinane-2,4,6-trione] | 3.8
27 | CCc1ccccc1N1CSC2=C(C#N)C(c3cc(OC)c(OC)cc3OC)CC(=O)N2C1 (stereo not drawn) [3-(2-ethylphenyl)-6-oxidanylidene-8-(2,4,5-trimethoxyphenyl)-2,4,7,8-tetrahydropyrido[2,1-b][1,3,5]thiadiazine-9-carbonitrile] | 2.91
28 | N#Cc1c(N)nc(SCC(=O)NC2CCCCC2)c(C#N)c1-c1ccc(Cl)cc1 [2-[6-amino-4-(4-chlorophenyl)-3,5-dicyanopyridin-2-yl]sulfanyl-N-cyclohexylacetamide] | 4.42
29 | COc1ccc(OC)c(CCNC(=O)Cn2sc3nc(C)cc(C)c3c2=O)c1 [MLS000118887] | 3.08
30 | Cc1ccc(-n2c(N)c(C(N)=O)sc2=S)cc1 [4-amino-3-(4-methylphenyl)-2-sulfanylidene-1,3-thiazole-5-carboxamide] | 2.58
31 | CCOc1ccccc1N1CSC2=C(C#N)C(c3c(OC)ccc4ccccc34)CC(=O)N2C1 (stereo not drawn) [3-(2-ethoxyphenyl)-8-(2-methoxy-1-naphthalenyl)-6-oxo-2,4,7,8-tetrahydropyrido[2,1-b][1,3,5]thiadiazine-9-carbonitrile] | 2.18
32 | c1ccc2c(c1)nnn2Cc1nnc2sc(-c3ccncc3)nn12 [3-(1-benzotriazolylmethyl)-6-pyridin-4-yl-[1,2,4]triazolo[3,4-b][1,3,4]thiadiazole] | 2.1
33 | Cc1sc2nc(SCC(=O)NCc3ccco3)n(CCc3ccccc3)c(=O)c2c1C [2-(5,6-Dimethyl-4-oxo-3-phenethyl-3,4-dihydro-thieno[2,3-d]pyrimidin-2-ylsulfanyl)-N-furan-2-ylmethyl-acetamide] | 3.86
34 | CCOC(=O)c1sc(NC(=O)CSc2nnc(Cc3ccccc3)o2)c(C#N)c1C [4-cyano-3-methyl-5-[[1-oxo-2-[[5-(phenylmethyl)-1,3,4-oxadiazol-2-yl]thio]ethyl]amino]-2-thiophenecarboxylic acid ethyl ester] | 0.094
35 | c1csc(-c2nn3c(C4COc5ccccc5O4)nnc3s2)c1 (stereo not drawn) [3-(2,3-dihydro-1,4-benzodioxin-2-yl)-6-(2-thienyl)[1,2,4]triazolo[3,4-b][1,3,4]thiadiazole] | 1.21
36 | O=C(CSc1nnnn1-c1ccccc1)Nc1nsc(-c2ccc(Cl)cc2)n1 [MLS000085595] | 15.7
37 | COc1ccc(Br)cc1C1CC(=O)N2CN(C)CSC2=C1C#N (stereo not drawn) [8-(5-bromanyl-2-methoxy-phenyl)-3-methyl-6-oxidanylidene-2,4,7,8-tetrahydropyrido[2,1-b][1,3,5]thiadiazine-9-carbonitrile] | 7.18
38 | CCOC(=O)c1c(NC(=O)c2cc(C3CC3)on2)sc2c1CCCC2 [2-[(5-cyclopropylisoxazole-3-carbonyl)amino]-4,5,6,7-tetrahydrobenzothiophene-3-carboxylic acid ethyl ester] | 1.7
39 | COCCn1c(-c2ccc(-c3ccccc3Cl)o2)nc2c1c(=O)[nH]c(=O)n2CC(C)C | 4.55
40 | COC(=O)c1ccc2c(=O)[nH]c(CN3c4ccccc4CC3C)nc2c1 (stereo not drawn) [methyl 2-[(2-methyl-2,3-dihydroindol-1-yl)methyl]-4-oxo-1H-quinazoline-7-carboxylate] | 13.3
41 | Fc1ccc(-c2ccc(-c3nn4c(-c5ccco5)nnc4s3)o2)cc1 [6-[5-(4-fluorophenyl)-2-furanyl]-3-(2-furanyl)-[1,2,4]triazolo[3,4-b][1,3,4]thiadiazole] | 8.95
42 | CCCCC[C@H](O)C=C[C@H]1C=CC(=O)[C@@H]1C/C=C\CCCC(=O)O [(Z)-7-[(1R,5S)-2-oxidanylidene-5-[(E,3S)-3-oxidanyloct-1-enyl]cyclopent-3-en-1-yl]hept-5-enoic acid] | 1.06
43 | Cc1ccc(NC(=O)Cn2nnc(C(=O)Nc3ccc(C)c(C)c3)c2N)cc1 [5-amino-N-(3,4-dimethylphenyl)-1-[2-(4-methylanilino)-2-oxoethyl]-4-triazolecarboxamide] | 16.4
44 | Nc1ccc(-c2nnc(-c3ccc(-c4ccccc4)cc3)o2)cc1 [4-[5-(4-phenylphenyl)-1,3,4-oxadiazol-2-yl]aniline] | 2.71
45 | CCCc1cc(C(=O)Nc2sc3c(c2C#N)CCC3)no1 [MLS000116386] | 2.8
46 | C=CCOc1ccc(CC2C(=O)N(C)C(=O)N(C)C2=O)cc1 [1,3-dimethyl-5-[(4-prop-2-enoxyphenyl)methyl]-1,3-diazinane-2,4,6-trione] | 2.61
47 | COc1ccc(N2CCN(Cc3cc(=O)oc4cc5c(cc34)CCCC5)CC2)cc1 [4-[[4-(4-methoxyphenyl)-1-piperazinyl]methyl]-6,7,8,9-tetrahydrobenzo[g][1]benzopyran-2-one] | 4.35
48 | CCn1c(SCC(=O)c2ccc(O)c(O)c2)nnc1-c1ccccc1OC [1-(3,4-dihydroxyphenyl)-2-[[4-ethyl-5-(2-methoxyphenyl)-1,2,4-triazol-3-yl]sulfanyl]ethanone] | 2.36
